Molecular target: T1, human CRHR2-alpha (Homo sapiens, UniProt Q13324)
T1 construct: host or cells: CHO-K1
T1 sequence (Q13324 1-411): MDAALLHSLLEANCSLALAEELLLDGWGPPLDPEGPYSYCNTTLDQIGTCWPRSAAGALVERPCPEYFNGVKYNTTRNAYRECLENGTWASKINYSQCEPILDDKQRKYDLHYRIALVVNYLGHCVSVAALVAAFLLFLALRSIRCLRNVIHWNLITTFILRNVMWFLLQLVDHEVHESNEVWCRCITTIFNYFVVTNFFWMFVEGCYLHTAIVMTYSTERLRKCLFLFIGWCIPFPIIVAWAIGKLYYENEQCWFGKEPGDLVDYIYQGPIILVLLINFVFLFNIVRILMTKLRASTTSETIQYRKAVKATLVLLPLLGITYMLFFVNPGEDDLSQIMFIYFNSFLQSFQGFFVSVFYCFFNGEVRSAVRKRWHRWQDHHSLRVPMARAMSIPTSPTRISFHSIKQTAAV
Test: cAMP functional assay for human CRHR2 (LANCE Ultra TR-FRET)
Format: cell-based
Settings: inhibition of cAMP production in CHO-K1 cells stably expressing human CRHR2-alpha, EC90 of human urocortin2 as agonist; read-out: IC50 against CRHR2
Description: cAMP functional assay for human CRHR2 The ability of the compounds of this invention to inhibit either CRHR2 is assessed by 3′,5′-cyclic adenosine monophosphate (cAMP) production in cells using the LANCE Ultra cAMP assay kit (ParkinElmer), which are designed based on the homogeneous time-resolved fluorescence resonance energy transfer (TR-FRET) immunoassay.
CHO-K1 (Chinese hamster ovary) cells stably expressing human CRHR2-alpha (DiscoveRX, Cat. 95-0048C2) are grown in HAM's F12 media supplemented with 10% fetal bovine serum (FBS), 100 units/mL penicillin G, 100 microg/mL hygromycin and 0.5 microg/mL geneticin at 37° C. in 5% CO2 humidified incubator to 80% confluence. After 7 hours starvation treatment in culture media containing 0.1% FBS, the cells are washed with Hanks balanced salt solution (HBSS) and cryopreserved.
For cAMP assay, frozen cells are thawed and washed with HBSS, followed by resuspending cells in assay buffer (HBSS containing 0.1% bovine serum albumin, 0.5 mM isobutylmethylxanthine and 5 mM Hepes, pH 7.4) at the appropriate concentration for the assay. The cell suspensions are plated on 384-well microplates (Greiner Bio-One) at a density of 4,000 cells per well. After preincubating the cells with various concentrations of the compounds for 30 min at 25° C., an assay buffer containing EC90 concentration of agonist is added and the cells are incubated for 30 min at 25° C. Human urocortin2 (Peptide Institute) is used as agonists for CRHR2. For the termination of assay, europium-labeled cAMP tracer and ULight (registered trademark) dye labeled cAMP antibodies, both prepared with Lance-Ultra cAMP detection reagent (PerkinElmer) are added in the plate and incubate for 60 min at 25° C. After incubation, TR-FRET signal is detected by EnVision plate reader (PerkinElmer). The IC50 values for compounds are calculated from dose-response curves by fitting the percent inhibition using XLfit (ID Business Solutions).

Row | Structure (SMILES) | IC50 [nM]
1 | O=C(N[C@H]1CC[C@H](CN2C(=O)C(O)(c3ccccc3F)c3cccc(F)c32)CC1)c1cc(Cl)cnc1C(F)F (mixture of isomers) [Example 82, 5-chloro-2-(difluoromethyl)-N-((1r,4r)-4-((7-fluoro-3-(2-fluorophenyl)-3-hydroxy-2-oxoindolin-1-yl)methyl)cyclohexyl) nicotinamide] | < 200
2 | COc1ccc(C2(O)C(=O)N(C[C@H]3CC[C@H](NC(=O)c4cc(Cl)cnc4C(F)F)CC3)c3ccccc32)cc1 (stereo partly drawn) [Example 2, 5-chloro-2-(difluoromethyl)-N-((1r,4r)-4-((3-hydroxy-3-(4-methoxyphenyl)-2-oxoindolin-1-yl)methyl)cyclohexyl) nicotinamide] | < 200
3 | O=C(N[C@H]1CC[C@H](CN2C(=O)C(O)(c3ccccc3)c3ccccc32)CC1)c1cc(Cl)cnc1C(F)F (stereo partly drawn) [Example 3, 5-chloro-2-(difluoromethyl)-N-((1r,4r)-4-((3-hydroxy-2-oxo-3-phenylindolin-1-yl)methyl)cyclohexyl) nicotinamide] | < 200
4 | O=C(N[C@H]1CC[C@H](CN2C(=O)C(O)(c3ccncc3F)c3ccccc32)CC1)c1cc(Cl)cnc1C(F)F (stereo partly drawn) [Example 10, 5-chloro-2-(difluoromethyl)-N-((1r,4r)-4-((3-(3-fluoropyridin-4-yl)-3-hydroxy-2-oxoindolin-1-yl)methyl)cyclohexyl) nicotinamide] | < 200
5 | O=C(N[C@H]1CC[C@H](CN2C(=O)C(O)(c3ccc(Cl)cn3)c3ccccc32)CC1)c1cc(Cl)cnc1C(F)F (stereo partly drawn) [Example 13, 5-chloro-N-((1r,4r)-4-((3-(5-chloropyridin-2-yl)-3-hydroxy-2-oxoindolin-1-yl)methyl)cyclohexyl)-2-(difluoromethyl)nicotinamide] | < 200
6 | O=C(N[C@H]1CC[C@H](CN2C(=O)C(O)(c3ccc(F)cc3)c3ccccc32)CC1)c1cc(Cl)cnc1C(F)F (stereo partly drawn) [Example 17, 5-chloro-2-(difluoromethyl)-N-((1r,4r)-4-((3-(4-fluorophenyl)-3-hydroxy-2-oxoindolin-1-yl)methyl)cyclohexyl) nicotinamide] | < 200
7 | O=C(N[C@H]1CC[C@H](CN2C(=O)C(O)(c3ccc(F)cn3)c3ccccc32)CC1)c1cc(Cl)cnc1C(F)F (stereo partly drawn) [Example 18, 5-chloro-2-(difluoromethyl)-N-((1r,4r)-4-((3-(5-fluoropyridin-2-yl)-3-hydroxy-2-oxoindolin-1-yl)methyl)cyclohexyl) nicotinamide] | < 200
8 | O=C(N[C@H]1CC[C@H](CN2C(=O)C(O)(c3cccc(F)c3)c3ccccc32)CC1)c1cc(Cl)cnc1C(F)F (stereo partly drawn) [Example 20, 5-chloro-2-(difluoromethyl)-N-((1r,4r)-4-((3-(3-fluorophenyl)-3-hydroxy-2-oxoindolin-1-yl)methyl)cyclohexyl) nicotinamide] | < 200
9 | COc1cc(C2(O)C(=O)N(C[C@H]3CC[C@H](NC(=O)c4cc(Cl)cnc4C(F)F)CC3)c3ccccc32)c(F)cn1 (stereo partly drawn) [Example 27, 5-chloro-2-(difluoromethyl)-N-((1r,4r)-4-((3-(5-fluoro-2-methoxypyridin-4-yl)-3-hydroxy-2-oxoindolin-1-yl)methyl)cyclohexyl) nicotinamide] | < 200
10 | O=C(N[C@H]1CC[C@H](CN2C(=O)C(O)(c3ccccc3)c3ccc(Cl)cc32)CC1)c1cc(Cl)cnc1C(F)F (stereo partly drawn) [Example 30, 5-chloro-N-((1r,4r)-4-((6-chloro-3-hydroxy-2-oxo-3-phenylindolin-1-yl)methyl)cyclohexyl)-2-(difluoromethyl)nicotinamide] | < 200
11 | O=C(N[C@H]1CC[C@H](CN2C(=O)C(O)(c3ccccc3F)c3ccccc32)CC1)c1cc(Cl)cnc1C(F)F (stereo partly drawn) [Example 33, 5-chloro-2-(difluoromethyl)-N-((1r,4r)-4-((3-(2-fluorophenyl)-3-hydroxy-2-oxoindolin-1-yl)methyl)cyclohexyl) nicotinamide] | < 200
12 | O=C(N[C@H]1CC[C@H](CN2C(=O)C(O)(c3cccc(F)c3F)c3ccccc32)CC1)c1cc(Cl)cnc1C(F)F (stereo partly drawn) [Example 40, 5-chloro-2-(difluoromethyl)-N-((1r,4r)-4-((3-(2,3-difluorophenyl)-3-hydroxy-2-oxoindolin-1-yl)methyl)cyclohexyl) nicotinamide] | < 200
13 | COc1cccc(C2(O)C(=O)N(C[C@H]3CC[C@H](NC(=O)c4cc(Cl)cnc4C(F)F)CC3)c3ccccc32)c1 (stereo partly drawn) [Example 47, 5-chloro-2-(difluoromethyl)-N-((1r,4r)-4-((3-hydroxy-3-(3-methoxyphenyl)-2-oxoindolin-1-yl)methyl)cyclohexyl) nicotinamide] | < 200
14 | O=C(N[C@H]1CC[C@H](CN2C(=O)C(O)(c3cccc(Cl)c3)c3ccccc32)CC1)c1cc(Cl)cnc1C(F)F (stereo partly drawn) [Example 48, 5-chloro-N-((1r,4r)-4-((3-(3-chlorophenyl)-3-hydroxy-2-oxoindolin-1-yl)methyl)cyclohexyl)-2-(difluoromethyl)nicotinamide] | < 200
15 | Cc1cccc(C2(O)C(=O)N(C[C@H]3CC[C@H](NC(=O)c4cc(Cl)cnc4C(F)F)CC3)c3ccccc32)c1 (stereo partly drawn) [Example 49, 5-chloro-2-(difluoromethyl)-N-((1r,4r)-4-((3-hydroxy-2-oxo-3-(m-tolyl)indolin-1-yl)methyl)cyclohexyl) nicotinamide] | < 200
16 | O=C(N[C@H]1CC[C@H](CN2C(=O)C(O)(c3ccc(F)cc3F)c3ccccc32)CC1)c1cc(Cl)cnc1C(F)F (stereo partly drawn) [Example 53, 5-chloro-2-(difluoromethyl)-N-((1r,4r)-4-((3-(2,4-difluorophenyl)-3-hydroxy-2-oxoindolin-1-yl)methyl)cyclohexyl) nicotinamide] | < 200
17 | COc1ccc(C2(O)C(=O)N(C[C@H]3CC[C@H](NC(=O)c4cc(Cl)cnc4C(F)F)CC3)c3ccccc32)c(F)c1 (stereo partly drawn) [Example 54, 5-chloro-2-(difluoromethyl)-N-((1r,4r)-4-((3-(2-fluoro-4-methoxyphenyl)-3-hydroxy-2-oxoindolin-1-yl)methyl)cyclohexyl) nicotinamide] | < 200
18 | Cc1ccc(C2(O)C(=O)N(C[C@H]3CC[C@H](NC(=O)c4cc(Cl)cnc4C(F)F)CC3)c3ccccc32)cc1 (stereo partly drawn) [Example 56, 5-chloro-2-(difluoromethyl)-N-((1r,4r)-4-((3-hydroxy-2-oxo-3-(p-tolyl)indolin-1-yl)methyl)cyclohexyl) nicotinamide] | < 200
19 | O=C(N[C@H]1CC[C@H](CN2C(=O)C(O)(c3cc(F)ccc3F)c3ccccc32)CC1)c1cc(Cl)cnc1C(F)F (stereo partly drawn) [Example 58, 5-chloro-2-(difluoromethyl)-N-((1r,4r)-4-((3-(2,5-difluorophenyl)-3-hydroxy-2-oxoindolin-1-yl)methyl)cyclohexyl) nicotinamide] | < 200
20 | N#Cc1ccc(F)c(C2(O)C(=O)N(C[C@H]3CC[C@H](NC(=O)c4cc(Cl)cnc4C(F)F)CC3)c3ccccc32)c1 (stereo partly drawn) [Example 59, 5-chloro-N-((1r,4r)-4-((3-(5-cyano-2-fluorophenyl)-3-hydroxy-2-oxoindolin-1-yl)methyl)cyclohexyl)-2-(difluoromethyl)nicotinamide] | < 200
21 | Cc1cccc(C2(O)C(=O)N(C[C@H]3CC[C@H](NC(=O)c4cc(Cl)cnc4C(F)F)CC3)c3ccccc32)c1F (stereo partly drawn) [Example 63, 5-chloro-2-(difluoromethyl)-N-((1r,4r)-4-((3-(2-fluoro-3-methylphenyl)-3-hydroxy-2-oxoindolin-1-yl)methyl)cyclohexyl) nicotinamide] | < 200

Source: patent publication US12421191B2, “3-hydroxyoxindole derivatives as CRHR2 antagonist” (RaQualia Pharma Inc., priority 2020, dated 2025)
